Data reported in patent US20260285880A1, “SUBSTITUTED DIHYDROTHIENOPYRIMIDINE COMPOUND, PREPARATION METHOD THEREFOR, AND USE THEREOF” (SHANGHAI YIDI BIOTECHNOLOGY CO., LTD., priority 2023, published 2026).

What was measured:
Flpin-293-PDE4B2 cells = Flpin-293-PDE4B2 cells (Homo sapiens, UniProt Q07343); assay: cell-based; conditions: for inhibition at 0.01 µM: read-out: Cell Inhibition % @10 nM, 10 nM, Flpin-293-PDE4B2 cells; for inhibition at 0.1 µM: read-out: Cell Inhibition % @100 nM, 100 nM, Flpin-293-PDE4B2 cells; for inhibition at 0.001 µM: read-out: Cell Inhibition % @1 nM, 1 nM, Flpin-293-PDE4B2 cells
Sequence of Flpin-293-PDE4B2 cells (Q07343 1-564 isoform Q07343-2): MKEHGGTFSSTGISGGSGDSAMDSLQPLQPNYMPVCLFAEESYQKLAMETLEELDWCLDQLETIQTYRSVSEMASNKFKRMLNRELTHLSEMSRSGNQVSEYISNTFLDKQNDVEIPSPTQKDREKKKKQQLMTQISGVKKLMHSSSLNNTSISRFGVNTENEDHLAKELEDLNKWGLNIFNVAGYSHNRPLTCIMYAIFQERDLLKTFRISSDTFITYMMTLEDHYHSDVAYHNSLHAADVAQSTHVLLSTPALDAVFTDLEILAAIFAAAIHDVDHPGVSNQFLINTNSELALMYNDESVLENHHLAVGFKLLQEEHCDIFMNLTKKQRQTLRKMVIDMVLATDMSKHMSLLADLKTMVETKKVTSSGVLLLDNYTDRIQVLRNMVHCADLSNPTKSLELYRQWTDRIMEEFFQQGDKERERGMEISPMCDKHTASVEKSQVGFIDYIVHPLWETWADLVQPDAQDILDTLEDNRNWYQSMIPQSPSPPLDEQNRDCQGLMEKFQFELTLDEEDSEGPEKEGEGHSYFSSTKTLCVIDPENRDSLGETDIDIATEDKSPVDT

PDE4B2 [1] = target: T1, PDE4B2 (Homo sapiens, UniProt Q07343); assay: biochemical; conditions: for inhibition at 0.01 µM: read-out: PDE4B2 Enzyme Inhibition % @10 nM; for inhibition at 0.1 µM: read-out: PDE4B2 Enzyme Inhibition % @100 nM
T1 sequence (Q07343 1-564 isoform Q07343-2, species assumed): as the sequence (Q07343 1-564 isoform Q07343-2) above

PDE4D2 = PDE4D2 (Homo sapiens, UniProt Q08499); assay: PDE4D2 enzyme experiment (AMP-Glo); conditions: read-out: PDE4D2 IC50 Binding; enzyme assay
Sequence of PDE4D2 (Q08499 303-809 limits assumed): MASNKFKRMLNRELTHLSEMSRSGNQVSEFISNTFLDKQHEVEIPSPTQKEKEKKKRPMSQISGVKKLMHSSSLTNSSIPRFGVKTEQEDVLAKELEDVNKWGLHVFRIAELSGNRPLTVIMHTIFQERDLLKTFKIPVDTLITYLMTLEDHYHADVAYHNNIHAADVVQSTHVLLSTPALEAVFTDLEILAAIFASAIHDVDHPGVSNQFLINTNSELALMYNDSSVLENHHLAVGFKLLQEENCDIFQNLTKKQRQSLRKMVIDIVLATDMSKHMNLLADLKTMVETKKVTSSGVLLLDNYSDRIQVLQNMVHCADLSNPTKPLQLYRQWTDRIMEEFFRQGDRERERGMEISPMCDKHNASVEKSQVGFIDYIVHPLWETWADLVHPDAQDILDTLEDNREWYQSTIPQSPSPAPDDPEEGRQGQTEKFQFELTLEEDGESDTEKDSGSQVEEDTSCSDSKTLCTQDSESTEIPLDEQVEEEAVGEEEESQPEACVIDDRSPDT

PDE4B2 [2] = target: T1, PDE4B2; conditions: read-out: PDE4B2 IC50; enzyme assay

| SMILES | inhibition at 0.01 µM (Flpin-293-PDE4B2 cells) | inhibition at 0.1 µM (Flpin-293-PDE4B2 cells) | inhibition at 0.01 µM (PDE4B2 [1]) | inhibition at 0.1 µM (PDE4B2 [1]) | IC50 (PDE4D2) | inhibition at 0.001 µM (Flpin-293-PDE4B2 cells) | IC50 (PDE4B2 [2]) |
| --- | --- | --- | --- | --- | --- | --- | --- |
| [O-][S+]1CCc2nc(N3Cc4ccc(Cl)cc4C3)nc(NC3(CO)CCC3)c21 (centres unmarked) [Compound 33] | 9% | 33.2% | 72.3% | 98.6% | – | – | – |
| [O-][S+]1CCc2nc(N3CCc4ccsc4C3)nc(NC3(CO)CCC3)c21 (centres unmarked) [Compound 36] | 18.1% | 66.6% | 74.5% | 99% | – | – | – |
| COc1ccc2c(c1)CCN(c1nc3c(c(NC4(CO)CCC4)n1)[S+]([O-])CC3)CC2 (centres unmarked) [Compound 47] | – | – | 98.4% | 100% | – | – | – |
| [O-][S+]1CCc2nc(N3Cc4ccc(C(F)(F)F)cc4C3)nc(NC3(CO)CCC3)c21 (centres unmarked) [Compound 62] | 29.5% | 69.1% | 83.8% | 101% | – | – | – |
| C[C@H]1Cc2cc(Cl)ccc2CN1c1nc2c(c(NC3(CO)CCC3)n1)[S+]([O-])CC2 (some centres unmarked) [Compound 122] | 49.9% | 96.8% | – | – | 2.04 nM | 5.4% | 0.838 nM |
| [O-][S+]1CCc2nc(N3CC[C@@H]4c5ccc(Cl)nc5OC[C@H]4C3)nc(NC3(CO)CCC3)c21 (some centres unmarked) [Compound 119] | 55.1% | 96% | – | – | 2.79 nM | 14% | 1.37 nM |
| C[C@@H]1Cc2cc(Cl)ccc2CN1c1nc2c(c(NC3(CO)CCC3)n1)[S+]([O-])CC2 (some centres unmarked) [Compound 121] | 10% | 29.4% | – | – | 48.2 nM | 0.4% | 13.5 nM |
| C[C@@H]1c2ccc(Br)cc2CCN1c1nc2c(c(NC3(CO)CCC3)n1)[S+]([O-])CC2 (some centres unmarked) [Compound 124] | 42.6% | 97.3% | – | – | 2.92 nM | 8.7% | 0.98 nM |

Further lines, results first:

| inhibition at 0.01 µM (Flpin-293-PDE4B2 cells) | inhibition at 0.1 µM (Flpin-293-PDE4B2 cells) | inhibition at 0.01 µM (PDE4B2 [1]) | inhibition at 0.1 µM (PDE4B2 [1]) | IC50 (PDE4D2) | inhibition at 0.001 µM (Flpin-293-PDE4B2 cells) | IC50 (PDE4B2 [2]) | SMILES |
| --- | --- | --- | --- | --- | --- | --- | --- |
| 49.6% | 97.5% | – | – | 0.694 nM | 11.8% | 0.418 nM | [O-][S+]1CCc2nc(N3CCc4cc(N5CC[C@@H](F)C5)ccc4C3)nc(NC3(CO)CCC3)c21 (some centres unmarked) [Compound 150] |
| 46.9% | 98.6% | – | – | 0.561 nM | 6.54% | 0.108 nM | Cn1cc(Nc2nc(N3CCc4cc(N5CCCC5)ccc4C3)nc3c2[S+]([O-])CC3)cn1 (centres unmarked) [Compound 168] |
| 52.8% | 93.8% | – | – | 0.584 nM | 10.7% | 0.589 nM | CN1C[C@@H]2CCN(c3ccc4c(c3)CCN(c3nc5c(c(NC6(CO)CCC6)n3)[S+]([O-])CC5)C4)[C@@H]2C1 (some centres unmarked) [Compound 162] |
| 72.5% | 100% | – | – | 0.252 nM | 13.9% | 0.113 nM | [O-][S+]1CCc2nc(N3CCc4cc(N5CCCCC5)ccc4C3)nc(NC3(CO)CCC3)c21 (centres unmarked) [Compound 143] |
| 76.8% | 99.9% | – | – | 0.52 nM | 10.2% | 0.182 nM | [O-][S+]1CCc2nc(N3CCc4cc(N5C[C@H]6C[C@@H]5CO6)ccc4C3)nc(NC3(CO)CCC3)c21 (some centres unmarked) [Compound 153] |
| 37.3% | 96.3% | – | – | 0.824 nM | 3.1% | 0.67 nM | [O-][S+]1CCc2nc(N3CCc4cc(N5CC6C(C5)C6(F)F)ccc4C3)nc(NC3(CO)CCC3)c21 (centres unmarked) [Compound 161] |
| 76.8% | 99.9% | – | – | 0.398 nM | 10.3% | 0.351 nM | [O-][S+]1CCc2nc(N3CCc4cc(N5CCC6(COC6)C5)ccc4C3)nc(NC3(CO)CCC3)c21 (centres unmarked) [Compound 165] |
| 65.7% | 99.5% | – | – | 0.391 nM | 8.43% | 0.386 nM | CC(C)(O)[C@@H]1CCN(c2ccc3c(c2)CCN(c2nc4c(c(NC5(CO)CCC5)n2)[S+]([O-])CC4)C3)C1 (some centres unmarked) [Compound 173] |
